# From PubChem BioAssay AID330 (DTP/NCI, 2004)
# Several values for one entry are separate records, joined by “and”; a condition that tells them apart may be missing. Equal values may be shown once. Inconclusive results and toxic doses are left out.
# Test system: P388 leukemia ip, CD2F1 mice, survival T/C
# Assay: NCI In Vivo Anticancer Drug Screen. Data for tumor model P388 Leukemia (intraperitoneal) in CD2F1 (CDF1) mice
# Details: endpoint: median survival time, higher = longer survival
# Summary of the method: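 Mice carrying the transplanted tumor received test compound or vehicle. Survival was recorded in each group, and the value is the treated-group measurement divided by that of the vehicle-treated control group.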
# [1] = dose: 12.5 mg/kg/injection, schedule: Q01DX009 (ip), vehicle: saline with Tween-80
# [2] = dose: 25.0 mg/kg/injection, schedule: Q01DX009 (ip), vehicle: saline with Tween-80
# [3] = dose: 50.0 mg/kg/injection, schedule: Q01DX009 (ip), vehicle: saline with Tween-80
# [4] = dose: 60.0 mg/kg/injection, schedule: Q01DX005 (ip), vehicle: saline with Tween-80
# [5] = dose: 120.0 mg/kg/injection, schedule: Q01DX005 (ip), vehicle: saline with Tween-80
# [6] = dose: 240.0 mg/kg/injection, schedule: Q01DX005 (ip), vehicle: saline with Tween-80
# [7] = dose: 100.0 mg/kg/injection, schedule: Q04DX003 (ip), vehicle: saline with Tween-80
# [8] = dose: 200.0 mg/kg/injection, schedule: Q04DX003 (ip), vehicle: saline with Tween-80
# [9] = dose: 400.0 mg/kg/injection, schedule: Q04DX003 (ip), vehicle: saline with Tween-80
# [10] = dose: 60.0 mg/kg/injection, schedule: Q01DX005 (ip), vehicle: Klucel (hydroxypropylcellulose) (HPC)
# [11] = dose: 120.0 mg/kg/injection, schedule: Q01DX005 (ip), vehicle: Klucel (hydroxypropylcellulose) (HPC)
# [12] = dose: 100.0 mg/kg/injection, schedule: Q01DX009 (ip), vehicle: saline with Tween-80
# [13] = dose: 200.0 mg/kg/injection, schedule: Q01DX009 (ip), vehicle: saline with Tween-80
# [14] = dose: 50.0 mg/kg/injection, schedule: Q01DX005 (ip), vehicle: Klucel (hydroxypropylcellulose) (HPC)
# [15] = dose: 100.0 mg/kg/injection, schedule: Q01DX005 (ip), vehicle: Klucel (hydroxypropylcellulose) (HPC)
# [16] = dose: 200.0 mg/kg/injection, schedule: Q01DX005 (ip), vehicle: Klucel (hydroxypropylcellulose) (HPC)
# [17] = dose: 25.0 mg/kg/injection, schedule: Q04DX002 (ip), vehicle: saline
# [18] = dose: 25.0 mg/kg/injection, schedule: Q01DX005 (ip), vehicle: saline
structure (smiles),measurement,setting,value
Cn1/c2cc/c1=C(\c1ccccc1)c1ccc([n-]1)/C(c1ccccc1)=c1/cc/c([nH]1)=C(\c1ccccc1)c1ccc([n-]1)/C=2c1ccccc1.O.O=S(=O)(O)C(F)(F)F.[Cu+2],T/C,[1],102 % of control
same,T/C,[2],91 % of control
same,T/C,"dose: 50.0 mg/kg/injection, schedule: Q01DX009 (ip), vehicle: other",88 % of control
same,T/C,[3],91 % of control
C1=Nc2ccccc2/C1=C/c1c[nH]c2ccccc12,T/C,"dose: 25.0 mg/kg/injection, schedule: Q01DX005 (ip), vehicle: saline with Tween-80",110 % of control
same,T/C,"dose: 50.0 mg/kg/injection, schedule: Q01DX005 (ip), vehicle: saline with Tween-80",100 % of control and 103 % of control and 104 % of control
same,T/C,"dose: 100.0 mg/kg/injection, schedule: Q01DX005 (ip), vehicle: saline with Tween-80",101 % of control and 103 % of control and 104 % of control
same,T/C,"dose: 200.0 mg/kg/injection, schedule: Q01DX005 (ip), vehicle: saline with Tween-80",104 % of control and 118 % of control and 122 % of control
same,T/C,"dose: 400.0 mg/kg/injection, schedule: Q01DX005 (ip), vehicle: saline with Tween-80",104 % of control
Nc1nc(N)nc(CNc2c(Br)cc(Br)cc2Br)n1,T/C,[4],93 % of control
same,T/C,[5],101 % of control
same,T/C,[6],90 % of control
c1ccc(-c2nnn(-n3nnc(-c4ccccc4)n3)n2)cc1,T/C,[7],97 % of control
same,T/C,[8],100 % of control
same,T/C,[9],97 % of control
COc1cc(NC(=O)C2=C(C)NC(C)=C(C(=O)Nc3cc(OC)c(Cl)cc3OC)C2c2cccc([N+](=O)[O-])c2)c(OC)cc1Cl,T/C,[10],89 % of control
same,T/C,[11],89 % of control
C=CCN(CC=C)P(=O)(N1CC1C)N1CC1C (stereo unspecified),T/C,"dose: 1.65 mg/kg/injection, schedule: Q01DX009 (ip), vehicle: water",166 % of control
same,T/C,"dose: 2.5 mg/kg/injection, schedule: Q01DX009 (ip), vehicle: water",157 % of control
same,T/C,"dose: 3.75 mg/kg/injection, schedule: Q01DX009 (ip), vehicle: water",118 % of control
same,T/C,"dose: 5.0 mg/kg/injection, schedule: Q01DX009 (ip), vehicle: saline",97 % of control
CCOC(=O)COc1ccc(/C=C(\C)[N+](=O)[O-])c2ccccc12,T/C,[3],99 % of control
same,T/C,[12],91 % of control
same,T/C,[13],100 % of control
CCc1nnc(NC(=S)NC(=O)OC)s1,T/C,"dose: 25.0 mg/kg/injection, schedule: Q04DX003 (ip), vehicle: saline with Tween-80",100 % of control
same,T/C,"dose: 50.0 mg/kg/injection, schedule: Q04DX003 (ip), vehicle: saline with Tween-80",105 % of control
same,T/C,[7],105 % of control
Nc1c(OS(=O)(=O)c2ccccc2)cccc1OS(=O)(=O)c1ccccc1,T/C,[3],91 % of control
same,T/C,[12],90 % of control
O=C1NC(=O)c2ncccc21,T/C,[7],100 % of control
same,T/C,[8],100 % of control
same,T/C,[9],100 % of control
CN(C)CCOC(=O)C1CC2(C1)CC(C(=O)OCCN(C)C)C2 (stereo unspecified),T/C,[14],95 % of control
same,T/C,[15],97 % of control
same,T/C,[16],103 % of control
O=C(O)C(=O)O.[Co].[NH-]CCC[NH-].[NH-]CCC[NH-],T/C,[17],98 % of control
O=C(OCc1ccccc1)N(CCF)c1cn(Cc2ccccc2)c(=O)n(Cc2ccccc2)c1=O,T/C,[14],93 % of control
same,T/C,[15],96 % of control
same,T/C,[16],87 % of control
CCCC(C)(O)/C(C)=N/O (stereo unspecified),T/C,[1],98 % of control
same,T/C,[2],101 % of control
same,T/C,[3],104 % of control and 87 % of control
same,T/C,[13],90 % of control
CNc1nc(-c2ccccc2)c(-c2ccccc2)[nH]1,T/C,"dose: 6.25 mg/kg/injection, schedule: Q04DX002 (ip), vehicle: saline",105 % of control
same,T/C,"dose: 12.5 mg/kg/injection, schedule: Q04DX002 (ip), vehicle: saline",100 % of control
same,T/C,[17],97 % of control
COc1ccc(C2OC3=C(Nc4ccc([N+](=O)[O-])cc4N3)C2=O)cc1 (stereo unspecified),T/C,"dose: 0.93 mg/kg/injection, schedule: Q01DX005 (ip), vehicle: Klucel (hydroxypropylcellulose) (HPC)",89 % of control
same,T/C,"dose: 1.87 mg/kg/injection, schedule: Q01DX005 (ip), vehicle: Klucel (hydroxypropylcellulose) (HPC)",93 % of control
same,T/C,"dose: 3.75 mg/kg/injection, schedule: Q01DX005 (ip), vehicle: Klucel (hydroxypropylcellulose) (HPC)",92 % of control
S=C1NCCOc2ccccc21,T/C,[10],100 % of control
same,T/C,[11],100 % of control
CCc1c(OC)c(C#N)c2n(C)c3cc(C)c(C)cc3n2c1=O,T/C,[4],87 % of control
same,T/C,[5],90 % of control
same,T/C,[6],93 % of control
c1ccc([Si]2(c3ccccc3)O[Si](c3ccccc3)(c3ccccc3)O[Si](c3ccccc3)(c3ccccc3)O[Si](c3ccccc3)(c3ccccc3)O2)cc1,T/C,[2],95 % of control and 97 % of control
same,T/C,[3],100 % of control and 92 % of control and 93 % of control
same,T/C,[12],120 % of control and 94 % of control and 95 % of control
same,T/C,[13],90 % of control (2×) and 93 % of control
CN1C2C=C(c3ccc(Cl)cc3)CC1CC2 (stereo unspecified),T/C,"dose: 6.25 mg/kg/injection, schedule: Q01DX005 (ip), vehicle: Klucel (hydroxypropylcellulose) (HPC)",106 % of control
same,T/C,"dose: 6.25 mg/kg/injection, schedule: Q01DX005 (ip), vehicle: saline",103 % of control
same,T/C,"dose: 12.5 mg/kg/injection, schedule: Q01DX005 (ip), vehicle: Klucel (hydroxypropylcellulose) (HPC)",100 % of control
same,T/C,"dose: 12.5 mg/kg/injection, schedule: Q01DX005 (ip), vehicle: saline",114 % of control
same,T/C,"dose: 25.0 mg/kg/injection, schedule: Q01DX005 (ip), vehicle: Klucel (hydroxypropylcellulose) (HPC)",109 % of control
same,T/C,[18],100 % of control
COc1ccc(C(=Nc2ccc(C)cc2)c2ccc([N+](=O)[O-])cc2)cc1,T/C,[12],90 % of control
same,T/C,[7],95 % of control
same,T/C,[13],90 % of control
same,T/C,[8],95 % of control
same,T/C,"dose: 400.0 mg/kg/injection, schedule: Q01DX009 (ip), vehicle: saline with Tween-80",90 % of control
same,T/C,[9],100 % of control
COc1cc(OC)c(C(=O)C(CN(C)C)CN(C)C)cc1OC,T/C,"dose: 1.87 mg/kg/injection, schedule: Q01DX005 (ip), vehicle: saline",113 % of control
same,T/C,"dose: 3.75 mg/kg/injection, schedule: Q01DX005 (ip), vehicle: other",113 % of control
same,T/C,"dose: 3.75 mg/kg/injection, schedule: Q01DX005 (ip), vehicle: saline",107 % of control
same,T/C,"dose: 7.5 mg/kg/injection, schedule: Q01DX005 (ip), vehicle: other",108 % of control
same,T/C,"dose: 7.5 mg/kg/injection, schedule: Q01DX005 (ip), vehicle: saline",106 % of control
same,T/C,"dose: 15.0 mg/kg/injection, schedule: Q01DX005 (ip), vehicle: saline",107 % of control
same,T/C,"dose: 120.0 mg/kg/injection, schedule: Q01DX005 (ip), vehicle: saline",124 % of control
C=CC/C(=N\OS(=O)(=O)O)SC1OC(CO)C(O)C(O)C1O (stereo unspecified),T/C,[18],92 % of control and 98 % of control
same,T/C,"dose: 50.0 mg/kg/injection, schedule: Q01DX005 (ip), vehicle: saline",102 % of control [middle of 4 runs]
same,T/C,"dose: 100.0 mg/kg/injection, schedule: Q01DX005 (ip), vehicle: saline",101 % of control and 102 % of control and 104 % of control
same,T/C,"dose: 200.0 mg/kg/injection, schedule: Q01DX005 (ip), vehicle: saline",100 % of control and 101 % of control and 98 % of control
CS(=O)(=O)c1cc(C(=O)O)cc(NCc2ccccc2)c1Oc1ccccc1,T/C,[3],106 % of control
same,T/C,[12],96 % of control
same,T/C,[13],102 % of control
CC[C@@H]1C[C@@H]2CN3CCc4c([nH]c5ccc(OC)cc45)C(COC(=O)c4ccc(OC)c(OC)c4)(C2)C13,T/C,"dose: 0.5 mg/kg/injection, schedule: Q01DX009 (ip), vehicle: Klucel (hydroxypropylcellulose) (HPC)",102 % of control
same,T/C,"dose: 1.0 mg/kg/injection, schedule: Q01DX009 (ip), vehicle: Klucel (hydroxypropylcellulose) (HPC)",104 % of control
same,T/C,"dose: 2.0 mg/kg/injection, schedule: Q01DX009 (ip), vehicle: Klucel (hydroxypropylcellulose) (HPC)",108 % of control
same,T/C,"dose: 4.0 mg/kg/injection, schedule: Q01DX009 (ip), vehicle: Klucel (hydroxypropylcellulose) (HPC)",102 % of control
Cc1ccc(NC(=O)Nc2sc(=S)c3c(c2C#N)CCCC3)c(C)c1,T/C,[3],87 % of control
same,T/C,[12],94 % of control
same,T/C,[13],89 % of control
